From US12472231B2 (priority 2020, dated 2025)
Where a SMILES comes first, the peptide text is derived from it.

System: A(H1N1)pdm09 virus
Experiment: microbe, parasite or virus in culture
Assay type: cell-based

CC[C@H](C)[C@H](NC(=O)[C@H](C)NC(=O)CNC(=O)[C@@H](N)CC(N)=O)C(=O)N[C@@H](CS)C(=O)N[C@@H](Cc1c[nH]c2ccccc12)C(=O)NCC(=O)N1CCC[C@H]1C(=O)N[C@@H](CS)C(=O)N1CCC[C@H]1C(=O)N[C@H](C(=O)N[C@@H](C)C(=O)N[C@@H](Cc1ccccc1)C(=O)N[C@@H](CCCNC(=N)N)C(=O)N[C@@H](CCC(N)=O)C(=O)N[C@H](C(=O)NCC(=O)N[C@@H](CC(N)=O)C(=O)N[C@@H](CS)C(=O)NCC(=O)N[C@@H](CCCNC(=N)N)C(=O)N[C@@H](Cc1ccccc1)C(=O)N[C@@H](CCCNC(=N)N)C(=O)N[C@H](C(=O)N[C@@H](CCCNC(=N)N)C(=O)N[C@@H](CS)C(=O)N[C@@H](CS)C(=O)N[C@@H](CCCNC(=N)N)C(=O)N[C@H](C(=O)N[C@@H](CCCNC(=N)N)C(=O)O)[C@@H](C)CC)C(C)C)[C@@H](C)CC)[C@@H](C)O [P9R] (H-NGAICWGPCPTAFRQIGNCGRFRVRCCRIR-OH)
emergence of drug-resistant virus after serial passages in presence of the agent: No obvious drug-resistant virus | inhibition of P30 virus replication: could efficiently inhibit | inhibition of P40 virus replication: could efficiently inhibit
